Experimental data from PubChem BioAssay AID1963977 (Molecular Pharmacology Branch, DTP, NCI, 2024).

System: 624824-186-R-J3-PDC multicell spheroids, viability
Test: Anticancer human tumor 624824-186-R-J3-PDC patient-derived colon adenocarcinoma cell line growth inhibition [PI3K]
Conditions: for IC50: curve of first compound; for viability, T/C: stronger effect = lower value
Method in brief: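 Viability of mixed-cell spheroids was determined after exposure to pairwise combinations, one partner being inavolisib, alpelisib, duvelisib or copanlisib. Highest tested concentration matched clinical Cmax where known and 10 microM where not, descending in half-log steps.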
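Also: spheroids exposed to agents for seven days before luminescence read.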
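For viability, T/C in this document: luminescent signal used as a stand-in for spheroid viability; percent viability relative to DMSO vehicle control wells taken as 100%.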

Structure (SMILES): Cn1cnc2c(F)c(Nc3ccc(Br)cc3Cl)c(C(=O)NOCCO)cc21 + Cc1nc(NC(=O)N2CCCC2C(N)=O)sc1-c1ccnc(C(C)(C)C(F)(F)F)c1
- IC50 (second compound 0.0316 µM): 1.89 µM
- IC50 (second compound 0.1 µM): 0.884 µM
- IC50 (second compound 0.316 µM): 0.515 µM
- IC50 (second compound 1 µM): 0.207 µM
- IC50 (second compound 3.16 µM): 0.0484 µM
- IC50 (second compound 10 µM): 0.0149 µM
- viability, T/C (second compound 0.0316 µM, first compound 0.00949 µM): 116%
- viability, T/C (second compound 0.0316 µM, first compound 0.03 µM): 104%
- viability, T/C (second compound 0.0316 µM, first compound 0.0949 µM): 89%
- viability, T/C (second compound 0.0316 µM, first compound 0.3 µM): 82.1%
- viability, T/C (second compound 0.0316 µM, first compound 0.949 µM): 62.8%
- viability, T/C (second compound 0.0316 µM, first compound 3 µM): 40.5%
- viability, T/C (second compound 0.1 µM, first compound 0.00949 µM): 105%
- viability, T/C (second compound 0.1 µM, first compound 0.03 µM): 98.1%
- viability, T/C (second compound 0.1 µM, first compound 0.0949 µM): 94.6%
- viability, T/C (second compound 0.1 µM, first compound 0.3 µM): 68%
- viability, T/C (second compound 0.1 µM, first compound 0.949 µM): 50.9%
- viability, T/C (second compound 0.1 µM, first compound 3 µM): 31.6%
- viability, T/C (second compound 0.316 µM, first compound 0.00949 µM): 114%
- viability, T/C (second compound 0.316 µM, first compound 0.03 µM): 98.2%
- viability, T/C (second compound 0.316 µM, first compound 0.0949 µM): 85.5%
- viability, T/C (second compound 0.316 µM, first compound 0.3 µM): 59.9%
- viability, T/C (second compound 0.316 µM, first compound 0.949 µM): 37.7%
- viability, T/C (second compound 0.316 µM, first compound 3 µM): 22.4%
- viability, T/C (second compound 1 µM, first compound 0.00949 µM): 97.3%
- viability, T/C (second compound 1 µM, first compound 0.03 µM): 91.5%
- viability, T/C (second compound 1 µM, first compound 0.0949 µM): 67.7%
- viability, T/C (second compound 1 µM, first compound 0.3 µM): 40.1%
- viability, T/C (second compound 1 µM, first compound 0.949 µM): 24.9%
- viability, T/C (second compound 1 µM, first compound 3 µM): 12.5%
- viability, T/C (second compound 3.16 µM, first compound 0.00949 µM): 73.8%
- viability, T/C (second compound 3.16 µM, first compound 0.03 µM): 60.4%
- viability, T/C (second compound 3.16 µM, first compound 0.0949 µM): 36.2%
- viability, T/C (second compound 3.16 µM, first compound 0.3 µM): 22.6%
- viability, T/C (second compound 3.16 µM, first compound 0.949 µM): 17.3%
- viability, T/C (second compound 3.16 µM, first compound 3 µM): 6.56%
- viability, T/C (second compound 10 µM, first compound 0.00949 µM): 56%
- viability, T/C (second compound 10 µM, first compound 0.03 µM): 42.2%
- viability, T/C (second compound 10 µM, first compound 0.0949 µM): 21.4%
- viability, T/C (second compound 10 µM, first compound 0.3 µM): 16%
- viability, T/C (second compound 10 µM, first compound 0.949 µM): 5.42%
- viability, T/C (second compound 10 µM, first compound 3 µM): 1.91%

Structure (SMILES): CCN1CCN(Cc2ccc(Nc3ncc(F)c(-c4cc(F)c5nc(C)n(C(C)C)c5c4)n3)nc2)CC1 + CC(Nc1ncnc2nc[nH]c12)c1cc2cccc(Cl)c2c(=O)n1-c1ccccc1
- IC50 (second compound 0.0316 µM): > 1 µM
- IC50 (second compound 0.1 µM): > 1 µM
- IC50 (second compound 0.316 µM): > 1 µM
- IC50 (second compound 1 µM): > 1 µM
- IC50 (second compound 3.16 µM): > 1 µM
- IC50 (second compound 10 µM): > 1 µM
- viability, T/C (second compound 0.0316 µM, first compound 0.00316 µM): 101%
- viability, T/C (second compound 0.0316 µM, first compound 0.01 µM): 94%
- viability, T/C (second compound 0.0316 µM, first compound 0.0316 µM): 101%
- viability, T/C (second compound 0.0316 µM, first compound 0.1 µM): 110%
- viability, T/C (second compound 0.0316 µM, first compound 0.316 µM): 99%
- viability, T/C (second compound 0.0316 µM, first compound 1 µM): 109%
- viability, T/C (second compound 0.1 µM, first compound 0.00316 µM): 103%
- viability, T/C (second compound 0.1 µM, first compound 0.01 µM): 108%
- viability, T/C (second compound 0.1 µM, first compound 0.0316 µM): 97.2%
- viability, T/C (second compound 0.1 µM, first compound 0.1 µM): 106%
- viability, T/C (second compound 0.1 µM, first compound 0.316 µM): 111%
- viability, T/C (second compound 0.1 µM, first compound 1 µM): 97.6%
- viability, T/C (second compound 0.316 µM, first compound 0.00316 µM): 105%
- viability, T/C (second compound 0.316 µM, first compound 0.01 µM): 110%
- viability, T/C (second compound 0.316 µM, first compound 0.0316 µM): 96.4%
- viability, T/C (second compound 0.316 µM, first compound 0.1 µM): 111%
- viability, T/C (second compound 0.316 µM, first compound 0.316 µM): 99.8%
- viability, T/C (second compound 0.316 µM, first compound 1 µM): 99.7%
- viability, T/C (second compound 1 µM, first compound 0.00316 µM): 93.1%
- viability, T/C (second compound 1 µM, first compound 0.01 µM): 103%
- viability, T/C (second compound 1 µM, first compound 0.0316 µM): 104%
- viability, T/C (second compound 1 µM, first compound 0.1 µM): 94.3%
- viability, T/C (second compound 1 µM, first compound 0.316 µM): 92.2%
- viability, T/C (second compound 1 µM, first compound 1 µM): 101%
- viability, T/C (second compound 3.16 µM, first compound 0.00316 µM): 106%
- viability, T/C (second compound 3.16 µM, first compound 0.01 µM): 100%
- viability, T/C (second compound 3.16 µM, first compound 0.0316 µM): 102%
- viability, T/C (second compound 3.16 µM, first compound 0.1 µM): 90.8%
- viability, T/C (second compound 3.16 µM, first compound 0.316 µM): 88.1%
- viability, T/C (second compound 3.16 µM, first compound 1 µM): 81.8%
- viability, T/C (second compound 10 µM, first compound 0.00316 µM): 96.6%
- viability, T/C (second compound 10 µM, first compound 0.01 µM): 96.7%
- viability, T/C (second compound 10 µM, first compound 0.0316 µM): 87%
- viability, T/C (second compound 10 µM, first compound 0.1 µM): 78.1%
- viability, T/C (second compound 10 µM, first compound 0.316 µM): 65.3%
- viability, T/C (second compound 10 µM, first compound 1 µM): 67%
